Measured values published in the supplement of paper PMC10307832.

Key:
Test in all cases: relative viability (nuclei count vs DMSO), 5 days (fraction); higher = more cells survive
[1] = compound: CC1=NC=CC(=C1)C2=CC=C(C=C2)CC(=O)NC3=CC=C(C=C3)C4=CN=CC=C4 [Wnt-C59] + Cc1nc(Nc2ncc(C(=O)Nc3c(C)cccc3Cl)s2)cc(N2CCN(CCO)CC2)n1 [Dasatinib] (partner 0.075 µM)
Outline: (§1)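 Lung cancer cell lines in 1536-well plates got either a single drug or a fixed anchor-drug dose together with five library-drug doses (not always all listed) in √10 steps, by pin tool, on the day after seeding. Nuclei were counted after 5 days, and relative viability is the treated-to-vehicle ratio of nuclei counts. Values are medians of duplicate plates.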

[2] = compound: CC1=NC=CC(=C1)C2=CC=C(C=C2)CC(=O)NC3=CC=C(C=C3)C4=CN=CC=C4 [Wnt-C59] + Nc1nc2[nH]cc(CCc3ccc(C(=O)N[C@@H](CCC(=O)O)C(=O)O)cc3)c2c(=O)[nH]1 [Pemetrexed] (partner 0.2 µM)
Outline: as §1

[3] = compound: CS(=O)(=O)CCNCc1ccc(-c2ccc3ncnc(Nc4ccc(OCc5cccc(F)c5)c(Cl)c4)c3c2)o1 [Lapatinib] + O=C(CCCCCCC(=O)Nc1ccccc1)NO [Vorinostat] (partner 1 µM)
Outline: as §1

[4] = compound: CS(=O)(=O)CCNCc1ccc(-c2ccc3ncnc(Nc4ccc(OCc5cccc(F)c5)c(Cl)c4)c3c2)o1 [Lapatinib] + CCNC(=O)c1noc(-c2cc(C(C)C)c(O)cc2O)c1-c1ccc(CN2CCOCC2)cc1 [Luminespib] (partner 0.01 µM)
Outline: as §1

Cell Line: UMC-11
- relative viability ([1]; first compound 0.001 µM): 0.444
- relative viability ([1]; first compound 0.01 µM): 0.417
- relative viability ([1]; first compound 0.03162 µM): 0.525
- relative viability ([1]; first compound 0.1 µM): 0.468
- relative viability ([2]; first compound 0.001 µM): 0.756
- relative viability ([2]; first compound 0.01 µM): 0.821
- relative viability ([2]; first compound 0.03162 µM): 0.874
- relative viability ([2]; first compound 0.1 µM): 0.76
- relative viability ([3]; first compound 0.02 µM): 0.42
- relative viability ([3]; first compound 0.06325 µM): 0.384
- relative viability ([3]; first compound 0.2 µM): 0.39
- relative viability ([3]; first compound 0.6325 µM): 0.367
- relative viability ([3]; first compound 2 µM): 0.321
- relative viability ([4]; first compound 0.02 µM): 0.887
- relative viability ([4]; first compound 0.06325 µM): 0.957
- relative viability ([4]; first compound 0.2 µM): 0.976
- relative viability ([4]; first compound 0.6325 µM): 0.901
- relative viability ([4]; first compound 2 µM): 1.02
